The text below walks through data of publication PMC3612106, “Metabolism of BYZX in Human Liver Microsomes and Cytosol: Identification of the Metabolites and Metabolic Pathways of BYZX” (PLoS ONE, 2013).

In one series the test system is pooled HLMs. The experiment in a line: Initial estimation of metabolism enzymes in pooled HLMs. It is filed as in vitro ADME, human. The following applies: 5 mM ABT preincubated 30 min, 0.4 mg/mL pooled HLMs, 20 µM BYZX. How it is done: Initial estimation of the main metabolic pathway in HLMs was performed using specific inhibitors, or by altering experimental conditions, to identify CYP and non-CYP metabolic pathway. Three groups of incubation of BYZX with pooled HLMs under different additive processes were carried out in parallel to identify whether the metabolites produced were mediated by CYPs or not. In Group I, the incubation mixture including 0.4 mg/mL pooled HLMs protein, 4 µL of NADP/NADPH solution (0.026 M NADP and 0.012 M NADPH in 1% NaHCO3 solution) and 5 mM 1-aminobenzotriazole (ABT, 1 M dissolved in dimethyl sulfoxide, DMSO) were preincubated at 37°C for 30 min, and then 20 µM BYZX was added into the incubation system (n = 2). In Group II, the incubation mixture including 0.4 mg/mL pooled HLMs protein were preincubated at 45°C for 10 min to abolish the activities of the flavin-containing monooxygenases (FMOs), and then 20 µM BYZX was added and precincubated at 37°C for 5 min, and then 4 µL of NADP/NADPH solution was added to initiate the reaction (n = 2). In Group III, the incubation mixture including 0.4 mg/mL pooled HLMs protein and 20 µM BYZX were preincubated at 37°C for 5 min, and then 4 µL of NADP/NADPH solution or […] NaHCO3 solution were added to initiate the reaction (n = 2). […]

For a further series, the target named is T1, CYP2C8 (Homo sapiens, UniProt P10632).
T1 construct: purchased BD Gentest (Woburn, MA); host or cells: baculovirus-insect cells
T1 sequence (P10632 1-490): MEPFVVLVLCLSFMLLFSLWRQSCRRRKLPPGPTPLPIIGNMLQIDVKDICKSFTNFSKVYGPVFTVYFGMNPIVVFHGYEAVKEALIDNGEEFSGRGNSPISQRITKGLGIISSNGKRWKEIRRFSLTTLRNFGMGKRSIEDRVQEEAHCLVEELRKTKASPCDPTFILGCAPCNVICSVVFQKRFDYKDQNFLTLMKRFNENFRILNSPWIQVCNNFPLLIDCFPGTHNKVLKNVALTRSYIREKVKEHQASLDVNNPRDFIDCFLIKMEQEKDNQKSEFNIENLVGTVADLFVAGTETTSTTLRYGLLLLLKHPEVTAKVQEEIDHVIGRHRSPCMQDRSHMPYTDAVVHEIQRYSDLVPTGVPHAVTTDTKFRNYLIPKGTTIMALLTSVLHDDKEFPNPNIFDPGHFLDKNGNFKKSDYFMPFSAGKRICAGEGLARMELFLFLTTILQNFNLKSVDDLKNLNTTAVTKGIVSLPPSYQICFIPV
The experiment in a line: Incubation and kinetics with recombinant human CYP2C8. It is filed as in vitro ADME. The following applies: for K m of N-des-ethylation: recombinant CYP2C8 0.1 mg/mL. As to the method:
(§1) Commercial baculovirus-insect cell-expressed human CYPs (0.1 mg/mL) including CYP1A2, 2A6, 2B6, 2C8, 2C9, 2C19, 2D6, 2E1 and 3A4 were incubated with 20 µM BYZX and 3 µM M2 in the aforementioned method respectively. After 40 min 1 volume of ice cold methanol was added to terminate the reaction. The mixture was vortexed for 1 min and centrifuged at 13 000 rpm for 15 min. 7 µL of the supernatant was injected into the LC-MS system for analysis.
(§2) The kinetics studies were performed using human liver cytosol, HLMs, and recombinant human CYP3A4 and CYP2C8. Before the kinetic study, the incubation time and the enzyme concentration for linear formation of metabolites were optimized. The concentrations of cytosol, HLMs, CYP3A4 and CYP2C8 protein were 0.4, 0.4, 0.04 and 0.1 mg/mL, respectively. The incubation times of HLMs, CYP3A4 and CYP2C8 were […], respectively. […] The following equation was applied, assuming a Michaelis–Menten equation: V = V max× [S]/(K m+[S]), where V is the rate of reaction, V max is the maximum velocity, K m is the Michaelis constant (substrate concentration at half of V max), and [S] is the substrate concentration. Eadie-Hofstee plot was used to confirm allosteric kinetics.

The nature of series [1]: Metabolism and kinetics in pooled HLMs. The following applies: for K m of N-des-ethylation: HLMs 0.4 mg/mL; for microsomal CLint: pooled human liver microsomes. It is filed as in vitro ADME, human. How it is done: BYZX (20 µM) was incubated in a 200 µL of reaction buffer solution containing 0.1 M Tris-HCl (pH 7.4), 0.15 M MgCl2, NADPH-generating system (9.7 mM dl-isocitrate trisodium and 0.07 unit of isocitrate dehydrogenase), and 1 mg/mL pooled HLMs. The incubation mixture was preincubated at 37°C for 5 min, and then the reaction was initiated by adding 4 µL of NADP/NADPH solution (0.026 M NADP and 0.012 M NADPH in 1% NaHCO3 solution). After incubation at 37°C for 120 min, 200 µL of cold methanol was added to terminate the reaction and precipitate the protein. The mixture was vortexed for 1 min and centrifuged at 13 000 rpm for 15 min. 7 µL of the supernatant was injected into the LC system.
(§3) Moreover, very small amount of M3 was isolated from pooled incubation samples by HPLC-UV on an ODS column with a gradient solvent system consisting of methanol and 10 mM ammonium formate in water. Then, M3 were incubated in pooled HLMs, recombinant CYPs, and human cytosol to confirm the further metabolism.
as §2
(In general: Liver microsomes are vesicles of endoplasmic reticulum, rich in cytochrome P450 enzymes.)

The nature of series [2]: Metabolism and kinetics in human liver cytosol. It is filed as in vitro ADME. As to the method:
as §3, §2
Estimation of the kinetics for BYZX hydrogenation in human liver cytosol was similar to what described above. BYZX in a series of concentration (5.0, 10.0, 20.0, 40.0, 100.0, 150.0, 200.0 µM) were incubated with 0.2 mg/mL of cytosol protein for 20 min at 37°C, and the different formation rates of M2 were assayed for estimating the kinetic parameters.

For series [3], the target named is T2, NADPH-CYP450 oxidoreductase (OR) and cytochrome b5 (cyt b5) (Homo sapiens, UniProt P00167+P16435).
T2 construct: made in house; host or cells: Sf9 insect cells
Description: Incubation with recombinant OR and cyt b5 (Sf9 expression). The class given is in vitro ADME. As to the method:
In order to determine whether OR and cyt b5 are the reductases of BYZX, OR and cyt b5 were expressed individually and together in our previous method using insect cell expression system, Sf9 cell line, [14]. The incubation method was similar to what described above. The production of M2 was determined.

The subject of series [4] is chemical-induced learning and memory impairments. The following applies: rodents; cited from earlier work.
For the next series, the system named is PC12 cells. As to conditions: cited from earlier work.
Series [5] concerns the target T3, CYP3A4 (Homo sapiens, UniProt P08684). The experiment in a line: Incubation and kinetics with recombinant human CYP3A4. The class given is in vitro ADME. Set-up: purchased BD Gentest (Woburn, MA); host or cells: baculovirus-insect cells. As to conditions: for K m of N-des-ethylation: recombinant CYP3A4 0.04 mg/mL, BYZX fitted to allosteric sigmoidal kinetics. As to the method: as §1, §2
Target sequence in this assay (P08684 whole entry): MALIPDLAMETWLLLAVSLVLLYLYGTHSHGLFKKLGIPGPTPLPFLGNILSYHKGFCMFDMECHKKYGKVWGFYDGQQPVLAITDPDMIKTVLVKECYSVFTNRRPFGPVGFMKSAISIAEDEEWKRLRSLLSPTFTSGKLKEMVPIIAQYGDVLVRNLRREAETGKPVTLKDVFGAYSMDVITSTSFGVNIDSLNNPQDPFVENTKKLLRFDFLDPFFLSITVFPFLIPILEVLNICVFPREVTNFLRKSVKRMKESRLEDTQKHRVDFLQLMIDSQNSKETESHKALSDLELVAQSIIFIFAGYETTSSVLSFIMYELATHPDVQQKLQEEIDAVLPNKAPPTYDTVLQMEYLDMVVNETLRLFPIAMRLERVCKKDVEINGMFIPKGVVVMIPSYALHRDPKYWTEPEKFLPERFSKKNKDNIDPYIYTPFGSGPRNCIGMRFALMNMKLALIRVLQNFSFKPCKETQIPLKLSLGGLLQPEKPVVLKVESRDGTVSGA

The subject of series [6] is formation of M2 from BYZX in human liver cytosol. The experiment in a line: in vitro. The following applies: 100 µM inhibitor, 20 µM BYZX, human liver cytosol (Fig. 6B). The class given is in vitro ADME. As to the method: (§4) Some reductase inhibitors and substrate were used to inhibit the hydrogenate reaction of BYZX. 20 µM BYZX was incubated with 100 µM dicoumarol in human liver cytosol and was incubated with 100 µM benzylideneacetone and with 20 µM finasteride in HLMs, respectively.

Series [7] concerns formation of M2 from BYZX in HLMs. The experiment in a line: Inhibition of BYZX hydrogenation in HLMs. As to conditions: 20 µM BYZX. It is filed as in vitro ADME, human. As to the method: as §4
The subject of series [8] is reductase-mediated hydrogenation of BYZX (formation of M2). The experiment in a line: in vitro. It is filed as in vitro ADME, human. As to conditions: human. How it is done: as §4
Series [9] addresses T3, CYP3A4. The experiment in a line: in vitro. The following applies: pooled human liver microsomes, probe M2 20 µM (formation of M1).
Target sequence in this assay (P08684 2-503): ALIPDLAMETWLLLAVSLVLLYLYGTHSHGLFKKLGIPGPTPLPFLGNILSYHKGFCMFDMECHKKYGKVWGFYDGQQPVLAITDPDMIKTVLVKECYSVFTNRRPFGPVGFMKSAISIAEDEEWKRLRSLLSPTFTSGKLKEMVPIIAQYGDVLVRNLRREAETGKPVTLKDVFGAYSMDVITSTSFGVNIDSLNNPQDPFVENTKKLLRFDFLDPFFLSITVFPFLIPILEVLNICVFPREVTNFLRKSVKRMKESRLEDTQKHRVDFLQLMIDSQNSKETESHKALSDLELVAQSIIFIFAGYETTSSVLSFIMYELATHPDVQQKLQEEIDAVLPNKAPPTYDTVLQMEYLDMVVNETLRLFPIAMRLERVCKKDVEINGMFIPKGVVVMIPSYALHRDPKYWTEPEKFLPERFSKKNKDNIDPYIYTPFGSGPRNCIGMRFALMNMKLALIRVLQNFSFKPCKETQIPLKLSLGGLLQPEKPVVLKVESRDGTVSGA

Read-outs that look alike come from different tables or passages of the source.

For `Nn1nnc2ccccc21` [ABT, 1-aminobenzotriazole], in the series with pooled HLMs, the “Effect on formation of desethyl metabolite M3 from BYZX” value is listed as “extensively suppressed” and the “Effect on hydrogenation of BYZX to M2” value is given as “not significantly inhibited”.
Turning to `CCN(CC)Cc1ccc(/C=C2\Cc3cc(OC)c(OC)cc3C2=O)cc1` [BYZX, (E)-2-(4-((diethylamino)methyl)benzylidene)-5,6-dimethoxy-2,3-dihydroinden-one], the “Cl int of N-des-ethylation (M3 formation)” value on CYP2C8 (recombinant CYP2C8) is recorded as 1.59 A.U; in series [1] (human, microsomes) it was 2.39 A.U; on CYP3A4 [5] (recombinant CYP3A4), 6.76 A.U. In addition, the “V max of N-des-ethylation (M3 formation)” value on CYP2C8 (recombinant CYP2C8) worked out at 0.099±0.005 A.U; in [1] (human, pH 7.4), 0.111±0.008 A.U; at CYP3A4 [5] (recombinant CYP3A4), 3.3±0.4 A.U. The “K m of N-des-ethylation” value on CYP2C8 turned out to be 62.1 ± 8.2 µM; in series [1], 46.4 ± 5.9 µM; at CYP3A4 [5] it was 488.2 ± 160.2 µM. Also, the “K m of hydrogenation (M2 formation)” value in [1] (HLMs) was found to be 21.4 ± 1.4 µM; in series [2] (human liver cytosol), 38.9 ± 2.5 µM. Further, the “V max of hydrogenation (M2 formation)” value in series [1] (HLMs) worked out at 0.252±0.008 nmol/min/mg protein; in series [2] (human liver cytosol), 3.56±0.07 nmol/min/mg protein. In addition, in [1] (human, pH 7.4, HLMs, read-out: Cl int of hydrogenation (M2 formation)), the microsomal CLint was determined as 11.8 µL/min/mg. Also, the “K m of hydrogenation in cytosol relative to HLMs” value in series [2] (cytosol vs HLMs) was “about 2 times”. The “Rate of hydrogenation (V max) in human liver cytosol relative to HLMs” value in series [2] (cytosol vs HLMs) is “about 15 times”. Besides, the “Metabolism into M2 in S9 fraction of blank Sf9 cells” value in [3] (blank Sf9 cells S9) is “rapidly metabolized into M2”. In addition, the “Rate of formation of M2 in mixture of recombinant OR and cyt b5” value in series [3] (compared with blank Sf9 S9) is “significantly decreased”. Further, the “Effect on chemical-induced learning and memory impairments” value in [4] was “significantly improve”. Besides, the “Effect on apoptosis induced by hydrogen peroxide” value in the series with PC12 cells was “protect”.
Turning to `CCN(CC)Cc1ccc(CC2Cc3cc(OC)c(OC)cc3C2=O)cc1` (stereo not shown) [M2], the microsomal CLint at CYP2C8 (human, recombinant human CYP2C8 (baculovirus-insect cell-expressed), recombinant CYP2C8, read-out: Cl int of N-des-ethylation (M1 formation)) amounted to 2.58 µL/min/mg; in series [1] (human, pH 7.4, HLMs, read-out: Cl int of N-des-ethylation (M1 formation)), 1.98 µL/min/mg; at CYP3A4 [5] (human, recombinant human CYP3A4 (baculovirus-insect cell-expressed), recombinant CYP3A4, read-out: Cl int of N-des-ethylation (M1 formation)) it was 6.01 µL/min/mg. In addition, the “V max of N-des-ethylation (M1 formation)” value at CYP2C8 (recombinant CYP2C8) came out at 0.370±0.024 nmol/min/mg protein; in [1] (HLMs), 0.209±0.010 nmol/min/mg protein; at CYP3A4 [5] (recombinant CYP3A4), 0.392±0.016 nmol/min/mg protein. Also, the figures for the “K m of N-des-ethylation” value (on CYP2C8; in series [1]; at CYP3A4 [5]) were 143.2 ± 17.7 µM, 105.7 ± 10.9 µM and 65.2 ± 7.2 µM, respectively. Besides, the “Cl int of CYP3A4 compared with that of CYP2C8 (M1 formation)” value on CYP3A4 [5] (recombinant CYP3A4 vs CYP2C8) is “over 2 folds”.
As for `CCNCc1ccc(/C=C2\Cc3cc(OC)c(OC)cc3C2=O)cc1` [M3], the “Further metabolism of M3” value in [1] (human) is given as “could be further biotransformed into M1”.
For the compound `CC(=O)C=Cc1ccccc1` [benzylideneacetone], in series [6], the “Effect on hydrogenation of BYZX (formation of M2)” value (“Effect … (formation of M2)” for short) is given as “significantly suppressed”.
In the case of `O=c1oc2ccccc2c(O)c1Cc1c(O)c2ccccc2oc1=O` [dicoumarol], the IC50 in [7] (0.2 mg/mL protein, 20 min) was determined as 7.7 ± 1.2 µM. In [6], the “Effect … (formation of M2)” value is “dramatic inhibitory effect”. For the same compound, the IC50 at 20 min in [8] came to 1.6 ± 1.3 µM.
Turning to `CC(C)(C)NC(=O)[C@H]1CC[C@H]2[C@@H]3CC[C@H]4NC(=O)C=C[C@]4(C)[C@H]3CC[C@]12C` [finasteride], the “Effect … (formation of M2)” value in series [7] (20 µM finasteride) was “no inhibitory effect”.
Compound `COc1ccc2c(c1)c(CC(=O)O)c(C)n2C(=O)c1ccc(Cl)cc1` [indomethacin] gave a 50% inhibitory concentration (IC50) at 20 min in [8] of 18.8 ± 1 µM.
Consider `CC(=O)N1CCN(c2ccc(OCC3COC(Cn4ccnc4)(c4ccc(Cl)cc4Cl)O3)cc2)CC1` (stereo not shown) [ketoconazole], for which the midpoint of inhibition on CYP3A4 [9], the IC50, lay at 9.8 ± 1.2 µM.

For orientation: IC50 means the concentration that gives 50% inhibition.
